How the values were obtained:
κ opioid receptor = κ opioid receptor (Homo sapiens (Human), UniProt P41145); assay: κ-opioid receptor [35S]GTPγS functional assay, HEK-293 or CHO cells; format: biochemical; conditions: for Emax: relative to U69,593, HEK-293 or CHO cells
Description: (§1) κ-Opioid Receptor Functional Assay Procedures: Functional [^35S]GTPγS binding assays were conducted as follows. κ opioid receptor membrane solution was prepared by sequentially adding final concentrations of 0.026 μg/μl κ membrane protein (in-house), 10 μg/mL saponin, 3 μM GDP and 0.20 nM [^35S]GTPγS to binding buffer (100 mM NaCl, 10 mM MgCl2, 20 mM HEPES, pH 7.4) on ice. The prepared membrane solution (190 μl/well) was transferred to 96-shallow well polypropylene plates containing 10 μl of 20× concentrated stock solutions of agonist prepared in DMSO. Plates were incubated for 30 min at a temperature of about 25° C. with shaking. Reactions were terminated by rapid filtration onto 96-well Unifilter GF/B filter plates (Perkin Elmer, Shelton, Conn.) using a 96-well tissue harvester (Packard) and followed by three filtration washes with 200 μl ice-cold binding buffer (10 mM NaH2PO4, 10 mM Na2HPO4, pH 7.4). Filter plates were subsequently dried at 50° C. for 2-3 hours. Fifty μl/well scintillation cocktail (Perkin Elmer, Shelton, Conn.) was added and plates were counted in a Packard Top-Count for 1 min/well.
κ-Opioid Receptor Functional Data: κ GTP EC50 is the concentration of a compound providing 50% of the maximal response for the compound at a κ receptor.
κ GTP Emax (%) is the maximal effect elicited by a compound relative to the effect elicited by U69,593.
(§2) In TABLE 2, activity response of certain Compounds of the Invention to the μ-, δ- and κ-opioid receptors was determined as described above for functional assays using HEK-293 or CHO cells.

μ-opioid receptor = μ-opioid receptor (Homo sapiens (Human), UniProt P35372); assay: μ-opioid receptor radioligand ([3H]-diprenorphine) dose-displacement binding assay; conditions: binding affinity, read-out: Opioid Receptor Ki (nM) μ
Description: μ-Opioid Receptor Binding Assay Procedures: Radioligand dose-displacement binding assays for μ-opioid receptors used 0.3 nM [^3H]-diprenorphine (Perkin Elmer, Shelton, Conn.), with […] membrane protein/well in a final volume of 500 μl binding buffer (10 mM MgCl2, 1 mM EDTA, 5% DMSO, 50 mM HEPES, pH 7.4). Reactions were carried out in the absence or presence of increasing concentrations of unlabeled naloxone. All reactions were conducted in 96-deep well polypropylene plates for 2 hours at room temperature. Binding reactions were terminated by rapid filtration onto 96-well Unifilter GF/C filter plates (Perkin Elmer, Shelton, Conn.), presoaked in 0.5% polyethylenimine using a 96-well tissue harvester (Perkin Elmer, Shelton, Conn.) followed by performing three filtration washes with 500 μl of ice-cold binding buffer. Filter plates were subsequently dried at 50° C. for 2-3 hours. BetaScint scintillation cocktail (Perkin Elmer, Shelton, Conn.) was added (50 μl/well), and plates were counted using a Packard Top-Count for 1 min/well. The data were analyzed using the one-site competition curve fitting functions in GraphPad PRISM™ v. 3.0 or higher (San Diego, Calif.), or an in-house function for one-site competition curve-fitting.
(§3) In TABLE 1, binding affinity of certain Compounds of the Invention to the μ-, δ- and κ-opioid receptors was determined as described above.

δ opioid receptor [1] = target: T1, δ opioid receptor (Homo sapiens (Human), UniProt P41143); assay: δ-opioid receptor [35S]GTPγS functional assay, HEK-293 or CHO cells; format: biochemical; conditions: for Emax: relative to met-enkephalin, HEK-293 or CHO cells
T1 sequence (P41143 whole entry, looked up): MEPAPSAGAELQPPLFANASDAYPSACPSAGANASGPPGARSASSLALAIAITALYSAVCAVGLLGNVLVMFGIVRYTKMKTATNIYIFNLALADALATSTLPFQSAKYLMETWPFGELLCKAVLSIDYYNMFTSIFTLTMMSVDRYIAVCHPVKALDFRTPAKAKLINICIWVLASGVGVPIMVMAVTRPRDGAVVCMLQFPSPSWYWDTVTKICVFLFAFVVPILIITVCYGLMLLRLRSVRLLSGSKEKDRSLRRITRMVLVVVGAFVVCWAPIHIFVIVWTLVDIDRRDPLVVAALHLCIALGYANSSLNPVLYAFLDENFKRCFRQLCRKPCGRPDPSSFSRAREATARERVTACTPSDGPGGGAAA
Description: as §1, with “δ-Opioid” for “κ-Opioid”, “δ” for “κ”, “(Perkin Elmer, Shelton, Conn.),” for “(in-house),”, “1-2” for “2-3”, “Top-count” for “Top-Count”
δ-Opioid Receptor Functional Data: δ GTP EC50 is the concentration of a compound providing 50% of the maximal response for the compound at a δ receptor.
δ GTP Emax (%) is the maximal effect elicited by a compound relative to the effect elicited by met-enkephalin.
as §2

δ opioid receptor [2] = target: T1, δ opioid receptor; assay: δ-opioid receptor radioligand ([3H]-Naltrindole) dose-displacement binding assay; conditions: binding affinity
Description: δ-Opioid Receptor Binding Assay Procedures: δ-Opioid Receptor Binding Assay Procedures were conducted as follows. Radioligand dose-displacement assays used 0.3 nM [^3H]-Naltrindole (Perkin Elmer, Shelton, Conn.; 33.0 Ci/mmole) with 5 μg membrane protein (Perkin Elmer, Shelton, Conn.) in a final volume of 500 μl binding buffer (5 mM MgCl2, 5% DMSO, 50 mM Trizma base, pH 7.4). Non-specific binding was determined in the presence of 25 μM unlabeled naloxone. All reactions were performed in 96-deep well polypropylene plates for 1 hour at a temperature of about 25° C. Binding reactions were terminated by rapid filtration onto 96-well Unifilter GF/C filter plates (Perkin Elmer, Shelton, Conn.) presoaked in 0.5% polyethylenimine (Sigma). Harvesting was performed using a 96-well tissue harvester (Perkin Elmer, Shelton, Conn.) followed by five filtration washes with 500 μl ice-cold binding buffer. Filter plates were subsequently dried at 50° C. for 1-2 hours. Fifty μl/well scintillation cocktail (Perkin Elmer, Shelton, Conn.) was added and plates were counted in a Packard Top-Count for 1 min/well.
as §3

Row | SMILES | EC50 (κ opioid receptor) [nM] | Emax (κ opioid receptor) [%] | Ki (μ-opioid receptor) [nM] | EC50 (δ opioid receptor [1]) [nM] | Emax (δ opioid receptor [1]) [%] | Ki (δ opioid receptor [2]) [nM]
1 | O=C1NC[C@@]2(CC[C@@]3(O)[C@H]4Cc5ccc(O)cc5[C@@]3(CCN4CC3CC3)C2)N1 [Compound 5, (4bR,4′S,8aS,9R)-11-(cyclopropylmethyl)-3,8a-dihydroxy-5,7,8,8a,9,10-hexahydrospiro[9,4b-(epiminoethano)phenanthrene-6,4′-imidazolidin]-2′-one] | 67.2 ± 8.88 | 67.33 ± 0.33 | 3.55 ± 0.77 | 37 ± 15 | 34.3 ± 2.91 | 272 ± 25.3
2 | O=C1NC(=O)[C@@]2(CC[C@@]3(O)[C@H]4Cc5ccc(O)cc5[C@@]3(CCN4CC3CC3)C2)N1 [Compound 3, (4bR,4′S,8aS,9R)-11-(cyclopropylmethyl)-3,8a-dihydroxy-5,7,8,8a,9,10-hexahydrospiro[9,4b-(epiminoethano)phenanthrene-6,4′-imidazolidine]-2′,5′-dione] | 54.8 ± 12.6 | 80.2 ± 3.32 | 15.9 ± 3.02 | 34.8 ± 7.78 | 42.5 ± 2.84 | 177 ± 36.7

From patent US8987287B2, “Spirocyclic morphinans and their use” (Purdue Pharma L.P., priority 2012, dated 2015)
